# Test results as given in PMC9472360, “Adagrasib, a KRAS G12C inhibitor, reverses the multidrug resistance mediated by ABCB1 in vitro and in vivo” (Cell Communication and Signaling : CCS, 2022).
# Target: T1, ABCB1 (P-glycoprotein/P-gp/MDR1) (Homo sapiens, UniProt P08183)
# T1 construct: full-length ABCB1 overexpressed in High Five insect cells; crude membranes
# Experiment: vanadate-sensitive ATPase assay, inorganic phosphate release, ABCB1 membranes
# Type: biochemical
# Settings: High Five membranes 100 µg/mL, 12 mM Mg-ATP, 37 °C, 0.01-5 µM
# T1 sequence (P08183 whole entry): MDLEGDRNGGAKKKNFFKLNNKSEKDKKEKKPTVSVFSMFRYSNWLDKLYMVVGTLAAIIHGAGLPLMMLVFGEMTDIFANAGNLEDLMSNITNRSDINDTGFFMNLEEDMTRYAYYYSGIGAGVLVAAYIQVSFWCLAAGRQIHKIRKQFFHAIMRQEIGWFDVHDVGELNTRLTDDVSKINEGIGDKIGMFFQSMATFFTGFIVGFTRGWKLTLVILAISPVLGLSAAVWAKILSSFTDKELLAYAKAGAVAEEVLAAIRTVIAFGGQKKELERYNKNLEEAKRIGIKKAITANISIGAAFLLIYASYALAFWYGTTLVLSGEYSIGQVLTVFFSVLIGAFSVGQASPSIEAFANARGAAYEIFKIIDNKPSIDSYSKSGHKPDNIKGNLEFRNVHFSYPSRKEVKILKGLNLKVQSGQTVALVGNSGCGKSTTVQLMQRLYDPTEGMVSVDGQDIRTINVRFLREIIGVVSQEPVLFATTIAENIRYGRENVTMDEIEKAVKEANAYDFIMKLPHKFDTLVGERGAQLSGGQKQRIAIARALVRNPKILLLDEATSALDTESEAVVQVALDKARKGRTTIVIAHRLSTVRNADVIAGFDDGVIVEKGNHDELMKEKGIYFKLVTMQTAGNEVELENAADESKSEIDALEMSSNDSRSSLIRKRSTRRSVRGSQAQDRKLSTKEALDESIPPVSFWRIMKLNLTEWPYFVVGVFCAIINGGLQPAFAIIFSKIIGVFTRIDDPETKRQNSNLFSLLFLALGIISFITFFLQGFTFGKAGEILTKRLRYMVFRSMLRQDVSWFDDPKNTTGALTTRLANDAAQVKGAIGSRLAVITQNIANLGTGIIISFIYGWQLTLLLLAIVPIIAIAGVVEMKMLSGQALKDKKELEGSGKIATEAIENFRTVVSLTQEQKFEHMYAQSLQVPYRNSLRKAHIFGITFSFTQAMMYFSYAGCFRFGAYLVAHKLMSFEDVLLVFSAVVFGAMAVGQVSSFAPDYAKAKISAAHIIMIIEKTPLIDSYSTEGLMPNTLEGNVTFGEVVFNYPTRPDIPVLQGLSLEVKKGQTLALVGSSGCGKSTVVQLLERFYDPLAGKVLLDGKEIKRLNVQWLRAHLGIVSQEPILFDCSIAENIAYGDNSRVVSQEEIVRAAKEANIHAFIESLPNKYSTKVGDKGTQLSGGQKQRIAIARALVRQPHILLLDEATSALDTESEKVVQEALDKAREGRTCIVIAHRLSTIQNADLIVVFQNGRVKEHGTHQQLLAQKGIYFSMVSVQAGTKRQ
smiles,measurement,value
C=C(F)C(=O)N1CCN(c2nc(OC[C@@H]3CCCN3C)nc3c2CCN(c2cccc4cccc(Cl)c24)C3)C[C@@H]1CC#N [MRTX849],ATPase stimulation,MRTX849- stimulated activity of ABCB1 ATPase was dose-dependent
